This is an account of results in US9481662B2, “Seriniquinones, melanoma-specific anticancer agents” (The Regents of the University of California, priority 2012, dated 2016).

Series [1] relates to HCT-116 cells. Kind of series: Cell cycle and DNA fragmentation analysis (FACS / ImageStream). The class given is cell-based, human. The method, then: Cell cycle was analyzed by the ImageStream® cell analysis system (Amnis). Briefly, HCT-116 cells (1×10^5 cells/mL) were seeded in 24-well plates, and 24 h later, 0.3 μM 1, 3 μM 1, 30 μM 1 or 17 μM etoposide (positive control) or 1% DMSO (negative control) was added to the cultures. After 18 h or 24 h incubation, cells were recovered by treatment with 0.05% trypsin-EDTA solution (GIBCO-BRL). An 100 μL aliquot of these cells were incubated for 30 min in the dark with a hypotonic solution containing 50 μg/mL propidium iodide, 0.1% sodium citrate, and 0.1% Triton X-100. Fluorescence was measured and DNA fragmentation and cell cycle were analyzed using ModFit LT for Win32 version 3.1.

Series [2] relates to HCT-116 cells. Put plainly: Cytotoxicity analysis (MTT/MTS) in HCT-116 colon carcinoma cells. It is filed as cell-based, human. The note with it: for IC50: Homo sapiens. From the text: Fortunately, 1 was fluorescent with excitation maxima at 250 nm (ε=20,800 cm^−1M^−1), 289 nm (ε=24,000 cm^−1M^−1) and 342 nm (ε=6900 cm^−1M^−1) and a broad emission from 490-680 nm. Using confocal microscopy, red and green fluorescence from 1 appeared in HCT-116 cells within minutes of addition (FIG. 3A). […] Time course confocal imaging studies were then combined with conventional activity MTT assays^6 to provide a detailed correlation between cellular localization and cytostatic activity.
HCT-116 colon carcinoma cells were plated in 96-well plates at 2.5×10^4 cells/well. After 24 h, the cultures were treated with a single concentration seriniquinone (1) within the range of 0.02-20.0 μM, etoposide (positive control) in the range of 0.05-50 μM or 1% DMSO (negative control). The cells were incubated for either 24 h, 48 h or 72 h. At the end of the incubation period, cultures were added with 3-(4,5-dimethylthiazol-2-yl)-5-(3-carboxymethoxyphenyl)-2-(4-sulfophenyl)-2H-tetrazolium (MTS) for 3 h. Cell viability was quantified by the ability of living cells to reduce the yellow MTS dye to a purple formazan product. Time course experiments were also conducted in HCT-116 cells. Cells were exposed to 1 over short periods (1 h, 3 h, 6 h, and 9 h) followed by incubation in drug-free media to complete a total of 24 h incubation before addition of MTS.

Series [3] relates to MALME-3M cells. Put plainly: NCI-60 cell line screen, melanoma line MALME-3M. It is filed as cell-based. The note with it: Homo sapiens, maximum activity in the panel. The method, then: (§1) This was further supported by the fact that 1 enhanced activity in melanoma cell lines with maximum activity against MALME-3M cells (GI50 value of 60 nM). With this in hand, chemical biological methods were applied to further probe this biological response.

Series [4] deals with NCI-60 cell line. Put plainly: NCI-60 cell line screen. It is filed as cell-based. The note with it: Homo sapiens; mean over NCI-60 panel. As for the experimental part: as §1
The test system of series [5] is DNA. Put plainly: In vitro DNA fragmentation assays. It is filed as biochemical.
Series [6] has as its system DCD-1L. Put plainly: Covalent labeling of DCD-1L peptide (fluorescent band on SDS-PAGE). It is filed as binding, human. The note with it: 50 μM; for covalent labeling of DCD-1L: 37° C., 24 h; for fluorescent labeling of DCD-1L fragment: PBS pH 7.2, 5% DMSO, 23° C., 24 h (FIG. 5E). An excerpt: FIGS. 5A-5E: Seriniquinone (1) targets dermcidin (DCD). […] Sequence listing (FIG. 5B): […] (SEQ ID NO:3); […] (SEQ ID NO:4).
The reactivity between 1 and DCD was then examined. […] These studies now provided initial support for the formation of a unique trimeric covalent adduct, compound 15, between 1, DCD and targeted proteins such as GADPH.

Series [7] concerns HCT-116 cells. Kind of series: Western blot analysis of cell cycle, apoptotic and autophagy markers. It is filed as cell-based, human. As for the experimental part: HCT-116 cells (1×10^6 cells/mL) were seeded in 75 cm^2 cell culture flasks and, 24 h later, treated with 3 μM 1, 30 μM 1, 17 μM etoposide (positive control), or 0.3% DMSO (negative control). After 24 h incubation, cells were washed in PBS, harvested and lysed in RIPA buffer. Protein extracts were quantified by an adapted micro-method of the Lowry assay using the DC Protein Assay kit (BioRad Laboratories). Equal amounts of protein (30 μg) from each treatment were fractionated using SDS-PAGE 5-15% gel and transferred to a PVDF membrane (BioRad Laboratories). The membranes were incubated overnight at 4° C. with primary antibodies for caspase-3, cleaved caspase-3, caspase 7, cleaved caspase-7, caspase-9, cleaved caspase-9, PARP, cleaved PARP, cyclin A, cyclin B1, cyclin D1, cyclin D3, cyclin D3, cyclin E1, cyclin E2, LC3A, LC3B or dermcidin (Santa Cruz Biotech). β-actin (Abcam) was used to normalize protein loading. After washing with TBS containing 0.1% Tween-20, the membranes were incubated with the appropriate secondary antibody alkaline phosphatase conjugate (Cell Signaling Technology Inc.), followed by BCIP/NBT color development substrate (Perkin-Elmer).
For orientation: A western blot detects proteins with antibodies after separation by electrophoresis.

Series [8] has as its system HCT-116 cells. Put plainly: Confocal microscopy subcellular localization. The class given is cell-based, human. The note with it: confocal imaging with counterstains. The method, then:
Confocal studies were conducted on a LSM 710 inverted confocal microscope (Zeiss) with scanning module with 3 detection channels, Plan-Apochromat 63×/1.4 na objective, diode laser (405 nm, CW pulsed, 30 mW), Ar-laser (458 nm, 488 nm, 514 nm, 25 mW), HeNe-laser (543 nm, 1 mW) and HeNe-laser (633 nm, 5 mW). For all procedures, cells were seeded 24 h prior to treatment, to allow for adequate attachment to the well or flask bottom. Cells were plated in glass-bottom dishes (MatTek Corporation) for microscopic analyses at 1×10^5 cells/mL. Compounds were added to cells under 1 mL of media from […] such that the DMSO content remained under 0.1%. […]
Colocalization studies were conducted by treating cells (HCT-116 or MALME-3M) at a density of 1×10^5 cells/cm^2 in a 35 mm glass-bottom dish (MatTek Corporation). […] After 30 min, cells were washed PBS (4×1 mL) and immediately analyzed by confocal microscope. […] The localization of seriniquinone (1) was acquired by red fluorescence with emission at 550-631 nm, while the ER-tracker was acquired by blue florescence with emission at 406-450 nm. […] After 15 min, cells were washed PBS (4×1 mL) and immediately analyzed by confocal microscope. […] The localization of seriniquinone (1) was acquired by red fluorescence with emission at 550-631 nm, while the ER-tracker was acquired by blue florescence with emission at 415-530 nm.

Series [9] can be described thus: Stability on storage / in solution. The class given is physicochemical.
Setting [10] is: HCT-116, Table 1, read-out: HCT 116 IC50.

Like-named read-outs stand apart in the source and are kept apart here.

`O=c1c2ccccc2c(=O)c2c1sc1c(=O)c3ccccc3c(=O)c12` [Compound 1, dinaphtho[2,3-b:2′,3′-d]thiophene-5,7,12,13-tetraone]: in series [1], the “DNA fragmentation (cells with subdiploid DNA)” value is listed as “concentration dependent DNA fragmentation” and the “cell cycle phase of remaining cells” value is listed as “S to G2 phase”. In addition, in series [2] (setting [10]), the 50% inhibitory concentration (IC50) (as a rule, the concentration needed to halve the response being measured) was found to be 0.35 µM. Also, the IC50 in series [2] (HCT-116 cells treated over 24 h period, MTT assay, read-out: IC50) was 0.64 ± 0.06 µM. Further, the GI50 (as a rule, the concentration at which growth is held to half of that of the control) in series [3] came out at 0.06 µM. In series [4], this molecule registered a GI50 of 0.91 µM and an LC50 (concentration giving 50% cell kill) of 18.6 µM. Also, the “DNA fragmentation in vitro” value in series [5] was “failed to induce DNA fragmentation”. Further, in series [6], the “covalent labeling of DCD-1L” value was “covalently label DCD-1L” and the “fluorescent labeling of DCD-1L fragment” value is “fluorescent bands corresponding to DCD-1L”. Also, the “cleavage of caspases and PARP” value in series [7] (HCT-116 cells) was “induced cleavage of caspases 3, 7 and 9 PARP”. Besides, the “induction of autophagy (LC3A/LC3B conversion, Western blot)” value in [7] (HCT-116 cells, 24 h) is given as “induced autophagy”. Besides, the cyclin expression result in series [7] (HCT-116 treated cells) was “strong reduction in the expression of the cyclins D1, D2 and D3”. For the same molecule, the subcellular localization entry in series [8] was “appeared soon after treatment in the ER”.
`Oc1c2ccccc2c(O)c2c1sc1c(O)c3ccccc3c(O)c12` [Compound S23]: the stability in solution entry in series [9] (in solution) was “oxidizes rapidly back to S22a in solution”.
Take `O=C(O)CCc1ccc2c(=O)c3c(sc4c(=O)c5ccccc5c(=O)c43)c(=O)c2c1` [acid 11, 3-(5,7,12,13-Tetraoxo-5,7,12,13-tetrahydrodinaphtho[2,3-b:2′,3′-d]-thiophen-3-yl)-propanoic acid]: in series [6], the “covalent labeling of DCD-1L” value is recorded as “covalently label DCD-1L”.
Turning to `CC(C)=CCCc1ccc2c(=O)c3c(sc4c(=O)c5ccccc5c(=O)c43)c(=O)c2c1` [alkene 10, 3-(4-Methylpent-3-en-1-yl)dinaphtho[2,3-b:2′,3′-d]thiophene-5,7,12,13-tetraone], the “storage stability of pure material” value in series [9] (1 month at −20° C.) is given as “significant decomposition”. Further, in series [6], the “covalent labeling of DCD-1L” value is given as “covalently label DCD-1L” and the “fluorescent labeling of DCD-1L fragment” value is “fluorescent bands corresponding to DCD-1L”.
For `O=c1c2ccccc2c(=O)c2sc3c(=O)c4ccccc4c(=O)c3sc12` [p2], the “HCT 116 IC50, μM” value in [2] (Table 1) is “NSA”.
As for `Nc1ccc2c(=O)c3c(sc4c(=O)c5ccc(N)cc5c(=O)c43)c(=O)c2c1` [p4], the half-inhibitory concentration (IC50) in [2] (setting [10]) came out at 2.2 µM.
Same read-out and setting: to `O=c1c2cc(O)ccc2c(=O)c2c1sc1c(=O)c3ccc(O)cc3c(=O)c12` [p6] belongs 1.9 µM; to `O=c1c2cc(Cl)ccc2c(=O)c2c1sc1c(=O)c3ccc(Cl)cc3c(=O)c12` [p9], 0.55 µM; to `O=C(Nc1ccc2c(=O)c3c(sc4c(=O)c5ccc(NC(=O)C(F)(F)F)cc5c(=O)c43)c(=O)c2c1)C(F)(F)F` [p12], 0.71 µM.
Same read-out and setting: with `CC(=O)Oc1ccc2c(=O)c3c(sc4c(=O)c5ccc(OC(C)=O)cc5c(=O)c43)c(=O)c2c1` [p14] the figure was 2.1 µM.
`Nc1cccc2c(=O)c3c(sc4c(=O)c5cccc(N)c5c(=O)c43)c(=O)c12` [p20]: the IC50 in [2] (setting [10]) is 0.78 µM.
Turning to `O=c1c2cccc(O)c2c(=O)c2c1sc1c(=O)c3c(O)cccc3c(=O)c12` [p21], the IC50 in series [2] (setting [10]) was found to be 0.7 µM.
On the same count and under the same terms, with `O=C(Nc1cccc2c(=O)c3c(sc4c(=O)c5cccc(NC(=O)C(F)(F)F)c5c(=O)c43)c(=O)c12)C(F)(F)F` [p23] the figure was 0.078 µM.
